Assays:
[1] = tested on: four non-smoking volunteers (2 men and 2 women); test: Taste identification questionnaire, trained panel (count of 6 repetitions per subject in which the stimulus was given each taste label; level of recognition %); format: in vivo, human; conditions: for Level of Recognition %: Bitter / Level of Recognition %: Neutral / Level of Recognition %: Salty / Level of Recognition %: Sour / Level of Recognition %: Sweet: four subjects
[2] = cited from earlier work
[3] = tested on: four non-smoking volunteers (2 men and 2 women); test: Taste intensity score, 11-point scale (0 not intense to 10 very intense); format: in vivo, human; conditions: averaged over 4 subjects, 6 repetitions each
Procedure: In this test, four non-smoking volunteers (2 men and 2 women) were chosen from 12 people for their performance in taste recognition. Their mean age was 32 years, ranging from 24 to 40 years. […] These four people were trained for several months to recognize and detect the four basic tastes, and also regarding the procedures of sensory and physiological analysis.
The four basic tastes (sweet, salty, sour and bitter) were used. The solutions were prepared with citric acid for the sour taste, caffeine for the bitter taste, sodium chloride for the salty taste and sucrose for the sweet taste (all purchased from Sigma Aldrich, France) in Evian water. Evian water was also used as control and blank. Each taste was prepared with the four concentrations mentioned in table 1.
The amount of solution to be tested was standardized at 10 ml. In order to impregnate the whole of the oral cavity, the subjects kept the solution in their mouth for 5 s before swallowing it.
The sessions were individual and the subjects were asked not to eat or drink anything for at least 1 h before the test. They arrived 15 min before the start of the session in order to acclimatize to the environmental conditions, in particular the temperature of the room (kept constant at 23° C.) and to be resting seated on a comfortable chair. The 16 solutions for testing and two additional samples of water containing solely Evian water, added to the references, were presented monadically following a test order determined from a “balanced incomplete block design”. During a session, 9 samples out of 18 were presented to minimize sensory fatigue. In addition, a sample of Evian was always tested as a “blank” sample in order to avoid the first-order effect (Lawless, H. T. & Heymann, H., 2010, Sensory evaluation of food: Principles and practices. Springer, New York) and was excluded from the analysis. A light signal was sent to give the instruction to test the sample. When the disturbance to the nervous system returned to its baseline level (after approximately 1 min), a second light signal indicated to the subjects that they should complete a questionnaire regarding the stimulus tested previously. The first part of the questionnaire was linked to the identification of the taste (i.e. determining the quality of the taste); the subjects had to choose between five labels: sweet, salty, sour, bitter or neutral. They then had to assign a taste intensity score on an 11-point scale (from 0 “not intense” (i.e. taste of Evian only) to 10 “very intense”) and finally to give a hedonic score on an 11-point scale (from 0 “very unpleasant” to 10 “very pleasant”, 5 being “neutral”).
This procedure was repeated for each of the 9 stimuli. A session lasted approximately 45 min including a debriefing at the end of the test to ensure understanding of the sense of the signal variations. The experiment was repeated 12 times per subject, meaning that the data are composed of 6 data sets per subject and per product and 12 data sets for the Evian product per subject. Thus, the database consists of 432 samples.
The effect of the taste on the hedonic and intensity scores was analyzed by an analysis of variance (ANOVA) including the product effect, the subject effect and the product-subject interaction. The subject effect was fixed because there were only 4 subjects and the results could only be applied to a particular schema. The differences were considered to be significant at a level of 0.05.

[4] = tested on: four non-smoking volunteers (2 men and 2 women); test: Hedonic score, 11-point scale (0 very unpleasant to 10 very pleasant, 5 neutral); format: in vivo, human; conditions: concentration 4 (highest)

O=C(O)CC(O)(CC(=O)O)C(=O)O [Citric acid, citric acid]
Individual recognition score: Bitter ([1]; Subject 1, dilution 1): 1 | Individual recognition score: Neutral ([1]; Subject 1, dilution 1): 3 | Individual recognition score: Salty ([1]; Subject 1, dilution 1): 0 | Individual recognition score: Sour ([1]; Subject 1, dilution 1): 1 | Individual recognition score: Sweet ([1]; Subject 1, dilution 1): 1 | Individual recognition score: Bitter ([1]; Subject 1, dilution 2): 1 | Individual recognition score: Neutral ([1]; Subject 1, dilution 2): 4 | Individual recognition score: Salty ([1]; Subject 1, dilution 2): 0 | Individual recognition score: Sour ([1]; Subject 1, dilution 2): 1 | Individual recognition score: Sweet ([1]; Subject 1, dilution 2): 0 | Individual recognition score: Bitter ([1]; Subject 1, dilution 3): 0 | Individual recognition score: Neutral ([1]; Subject 1, dilution 3): 0 | Individual recognition score: Salty ([1]; Subject 1, dilution 3): 0 | Individual recognition score: Sour ([1]; Subject 1, dilution 3): 6 | Individual recognition score: Sweet ([1]; Subject 1, dilution 3): 0 | Individual recognition score: Bitter ([1]; Subject 1, dilution 4): 0 | Individual recognition score: Neutral ([1]; Subject 1, dilution 4): 0 | Individual recognition score: Salty ([1]; Subject 1, dilution 4): 0 | Individual recognition score: Sour ([1]; Subject 1, dilution 4): 6 | Individual recognition score: Sweet ([1]; Subject 1, dilution 4): 0 | Individual recognition score: Bitter ([1]; Subject 2, dilution 1): 0 | Individual recognition score: Neutral ([1]; Subject 2, dilution 1): 5 | Individual recognition score: Salty ([1]; Subject 2, dilution 1): 0 | Individual recognition score: Sour ([1]; Subject 2, dilution 1): 0 | Individual recognition score: Sweet ([1]; Subject 2, dilution 1): 1 | Individual recognition score: Bitter ([1]; Subject 2, dilution 2): 0 | Individual recognition score: Neutral ([1]; Subject 2, dilution 2): 3 | Individual recognition score: Salty ([1]; Subject 2, dilution 2): 0 | Individual recognition score: Sour ([1]; Subject 2, dilution 2): 2 | Individual recognition score: Sweet ([1]; Subject 2, dilution 2): 1 | Individual recognition score: Bitter ([1]; Subject 2, dilution 3): 0 | Individual recognition score: Neutral ([1]; Subject 2, dilution 3): 0 | Individual recognition score: Salty ([1]; Subject 2, dilution 3): 0 | Individual recognition score: Sour ([1]; Subject 2, dilution 3): 6 | Individual recognition score: Sweet ([1]; Subject 2, dilution 3): 0 | Individual recognition score: Bitter ([1]; Subject 2, dilution 4): 0 | Individual recognition score: Neutral ([1]; Subject 2, dilution 4): 0 | Individual recognition score: Salty ([1]; Subject 2, dilution 4): 0 | Individual recognition score: Sour ([1]; Subject 2, dilution 4): 6 | Individual recognition score: Sweet ([1]; Subject 2, dilution 4): 0 | Individual recognition score: Bitter ([1]; Subject 3, dilution 1): 2 | Individual recognition score: Neutral ([1]; Subject 3, dilution 1): 3 | Individual recognition score: Salty ([1]; Subject 3, dilution 1): 0 | Individual recognition score: Sour ([1]; Subject 3, dilution 1): 1 | Individual recognition score: Sweet ([1]; Subject 3, dilution 1): 0 | Individual recognition score: Bitter ([1]; Subject 3, dilution 2): 4 | Individual recognition score: Neutral ([1]; Subject 3, dilution 2): 1 | Individual recognition score: Salty ([1]; Subject 3, dilution 2): 0 | Individual recognition score: Sour ([1]; Subject 3, dilution 2): 1 | Individual recognition score: Sweet ([1]; Subject 3, dilution 2): 0 | Individual recognition score: Bitter ([1]; Subject 3, dilution 3): 0 | Individual recognition score: Neutral ([1]; Subject 3, dilution 3): 0 | Individual recognition score: Salty ([1]; Subject 3, dilution 3): 0 | Individual recognition score: Sour ([1]; Subject 3, dilution 3): 6 | Individual recognition score: Sweet ([1]; Subject 3, dilution 3): 0 | Individual recognition score: Bitter ([1]; Subject 3, dilution 4): 0 | Individual recognition score: Neutral ([1]; Subject 3, dilution 4): 0 | Individual recognition score: Salty ([1]; Subject 3, dilution 4): 0 | Individual recognition score: Sour ([1]; Subject 3, dilution 4): 6 | Individual recognition score: Sweet ([1]; Subject 3, dilution 4): 0 | Individual recognition score: Bitter ([1]; Subject 4, dilution 1): 3 | Individual recognition score: Neutral ([1]; Subject 4, dilution 1): 2 | Individual recognition score: Salty ([1]; Subject 4, dilution 1): 0 | Individual recognition score: Sour ([1]; Subject 4, dilution 1): 1 | Individual recognition score: Sweet ([1]; Subject 4, dilution 1): 0 | Individual recognition score: Bitter ([1]; Subject 4, dilution 2): 1 | Individual recognition score: Neutral ([1]; Subject 4, dilution 2): 1 | Individual recognition score: Salty ([1]; Subject 4, dilution 2): 0 | Individual recognition score: Sour ([1]; Subject 4, dilution 2): 4 | Individual recognition score: Sweet ([1]; Subject 4, dilution 2): 0 | Individual recognition score: Bitter ([1]; Subject 4, dilution 3): 0 | Individual recognition score: Neutral ([1]; Subject 4, dilution 3): 0 | Individual recognition score: Salty ([1]; Subject 4, dilution 3): 0 | Individual recognition score: Sour ([1]; Subject 4, dilution 3): 6 | Individual recognition score: Sweet ([1]; Subject 4, dilution 3): 0 | Individual recognition score: Bitter ([1]; Subject 4, dilution 4): 0 | Individual recognition score: Neutral ([1]; Subject 4, dilution 4): 0 | Individual recognition score: Salty ([1]; Subject 4, dilution 4): 0 | Individual recognition score: Sour ([1]; Subject 4, dilution 4): 6 | Individual recognition score: Sweet ([1]; Subject 4, dilution 4): 0 | Level of Recognition %: Bitter ([1]; dilution 1): 25% | Level of Recognition %: Neutral ([1]; dilution 1): 54% | Level of Recognition %: Salty ([1]; dilution 1): 0% | Level of Recognition %: Sour ([1]; dilution 1): 13% | Level of Recognition %: Sweet ([1]; dilution 1): 8% | Level of Recognition %: Bitter ([1]; dilution 2): 25% | Level of Recognition %: Neutral ([1]; dilution 2): 38% | Level of Recognition %: Salty ([1]; dilution 2): 0% | Level of Recognition %: Sour ([1]; dilution 2): 33% | Level of Recognition %: Sweet ([1]; dilution 2): 4% | Level of Recognition %: Bitter ([1]; dilution 3): 0% | Level of Recognition %: Neutral ([1]; dilution 3): 0% | Level of Recognition %: Salty ([1]; dilution 3): 0% | Level of Recognition %: Sour ([1]; dilution 3): 100% | Level of Recognition %: Sweet ([1]; dilution 3): 0% | Level of Recognition %: Bitter ([1]; dilution 4): 0% | Level of Recognition %: Neutral ([1]; dilution 4): 0% | Level of Recognition %: Salty ([1]; dilution 4): 0% | Level of Recognition %: Sour ([1]; dilution 4): 100% | Level of Recognition %: Sweet ([1]; dilution 4): 0% | detection threshold concentration of the basic taste ([2]; literature (Purves 2005; Robinson 2005)): approximately 2 mmol·l^−1 | detection threshold ([2]; representative compound of a primary taste): 0.384 to 0.5 g/L | intensity score ([3]; concentration 1): 1.2±1.5 | intensity score ([3]; concentration 2): 1.0±1.0 | intensity score ([3]; concentration 4): 8.4±1.2 | hedonic score [4]: 3.3±2.4

Reference: patent US20180188224A1, “METHOD FOR CONSTRUCTING A SENSORY SPACE” (CENTRE SCIENTIFIQUE ET TECHNIQUE DU BATIMENT (CSTB), priority 2015, published 2018)
